Assay [1] concerns RH-18. The assay can be described thus: cells. The class given is functional, cell-based. The note with it: Homo sapiens, Rh18.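 Further: growth inhibition of human RH-18 cells, read out with a cell viability assay.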
Description: SANGER: Inhibition of human RH-18 cell growth in a cell viability assay.
Assay [2] concerns NCI-H2029. The assay can be described thus: cells. The note with it: Homo sapiens. The class given is functional, cell-based.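 Further: Read-out is a viability assay on the cultured cells, and IC50 is the concentration that suppresses cell growth.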
Description: SANGER: Inhibition of human NCI-H2029 cell growth in a cell viability assay.
The test system of assay [3] is KNS-62. Description: cells. The class given is functional, cell-based. The note with it: Homo sapiens.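 Further: inhibition of cell growth, read out with a cell viability assay.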
Description: SANGER: Inhibition of human KNS-62 cell growth in a cell viability assay.
For assay [4], the system named is BT-549. Description: cells. The class given is functional, cell-based. The following applies: Homo sapiens.
Description: SANGER: Inhibition of human BT-549 cell growth in a cell viability assay.
The test system of assay [5] is ECC10. The assay can be described thus: cells. The class given is functional, cell-based. The following applies: Homo sapiens.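 Further: growth inhibition of ECC10 cells, read out by a cell viability assay.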
Description: SANGER: Inhibition of human ECC10 cell growth in a cell viability assay.
Assay [6] relates to NCI-H1048. Description: cells. The class given is functional, cell-based. The note with it: Homo sapiens.
Description: SANGER: Inhibition of human NCI-H1048 cell growth in a cell viability assay.
For assay [7], the system named is SNU-423. The assay can be described thus: cells. The class given is functional, cell-based, Homo sapiens. The note with it: Homo sapiens, SNU-423.
Description: SANGER: Inhibition of human SNU-423 cell growth in a cell viability assay.
For assay [8], the system named is D-566MG. The assay can be described thus: cells. The following applies: Homo sapiens. The class given is functional, cell-based.
In assay [9] the test system is ZR-75-30. Description: cells. The class given is functional, cell-based. The note with it: Homo sapiens.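 Further: growth inhibition of ZR-75-30 cells, measured with a cell viability readout.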
Description: SANGER: Inhibition of human ZR-75-30 cell growth in a cell viability assay.
The test system of assay [10] is NBsusSR. Description: cells. The class given is functional, cell-based. The note with it: Homo sapiens.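 Further: growth inhibition of the human cell line, read out with a cell viability assay.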
Description: SANGER: Inhibition of human NBsusSR cell growth in a cell viability assay.
The subject of assay [11] is NCI-H1417. Description: cells. The class given is functional, cell-based. The note with it: Homo sapiens.
Description: SANGER: Inhibition of human NCI-H1417 cell growth in a cell viability assay.
Assay [12] has as its system RPMI 8402. Description: SANGER: Inhibition of human RPMI-8402 cell growth in a cell viability assay. The class given is functional, cell-based.
Assay [13] relates to SKM-1. The assay can be described thus: SANGER: Inhibition of human SKM-1 cell growth in a cell viability assay. The class given is functional, cell-based.
Assay [14] relates to BC1 cell line. Description: SANGER: Inhibition of human BC-1 cell growth in a cell viability assay. The class given is functional, cell-based.
Assay [15] has as its system MC-CAR. Description: cells. The class given is functional, cell-based. The note with it: Homo sapiens.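 Further: growth inhibition of the human MC-CAR cell line, read out by a cell viability assay.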
Description: SANGER: Inhibition of human MC-CAR cell growth in a cell viability assay.
Assay [16] deals with NCI-H1522. The assay can be described thus: cells. The class given is functional, cell-based. The note with it: Homo sapiens.
Description: SANGER: Inhibition of human NCI-H1522 cell growth in a cell viability assay.
Assay [17] deals with ECC4. The assay can be described thus: cells. The class given is functional, cell-based. The note with it: Homo sapiens.
Description: SANGER: Inhibition of human ECC4 cell growth in a cell viability assay.
Assay [18] relates to Daudi. The assay can be described thus: cells. The class given is functional, cell-based. The note with it: Homo sapiens.
Description: SANGER: Inhibition of human Daudi cell growth in a cell viability assay.
Assay [19] relates to NCI-H748. Description: cells. The class given is functional, cell-based. The note with it: Homo sapiens.
Description: SANGER: Inhibition of human NCI-H748 cell growth in a cell viability assay.
Assay [20] has as its system TUR. Description: cells. The class given is functional, cell-based. The following applies: Homo sapiens.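 Further: growth inhibition of human TUR cells, read out with a cell viability assay.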
Description: SANGER: Inhibition of human TUR cell growth in a cell viability assay.
For assay [21], the system named is NCI-H1963. The assay can be described thus: cells. The class given is functional, cell-based. The following applies: Homo sapiens.
Description: SANGER: Inhibition of human NCI-H1963 cell growth in a cell viability assay.
The subject of assay [22] is LU-165. The assay can be described thus: cells. The class given is functional, cell-based. The note with it: Homo sapiens.
Description: SANGER: Inhibition of human LU-165 cell growth in a cell viability assay.
Assay [23] relates to WSU-NHL. The assay can be described thus: cells. The class given is functional, cell-based. The following applies: Homo sapiens.
Description: SANGER: Inhibition of human WSU-NHL cell growth in a cell viability assay.
Assay [24] has as its system BL-41. Description: cells. The class given is functional, cell-based. The following applies: Homo sapiens.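 Further: growth inhibition of human BL-41 cells, read out with a cell viability assay.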
Description: SANGER: Inhibition of human BL-41 cell growth in a cell viability assay.
In assay [25] the test system is NCI-H128. The assay can be described thus: SANGER: Inhibition of human NCI-H128 cell growth in a cell viability assay. The class given is functional, cell-based.
For assay [26], the system named is LB647-SCLC. Description: cells. The class given is functional, cell-based. The note with it: Homo sapiens.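 Further: cell growth inhibition, read out by a viability assay.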
Description: SANGER: Inhibition of human LB647-SCLC cell growth in a cell viability assay.
The test system of assay [27] is MRK-nu-1. Description: cells. The class given is functional, cell-based. The note with it: Homo sapiens.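 Further: cell viability assay measuring growth suppression of human MRK-nu-1 cells.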
Description: SANGER: Inhibition of human MRK-nu-1 cell growth in a cell viability assay.
Assay [28] concerns NCI-H2141. The assay can be described thus: cells. The class given is functional, cell-based. The note with it: Homo sapiens.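 Further: growth inhibition of human NCI-H2141 cells, read out with a cell viability assay.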
Description: SANGER: Inhibition of human NCI-H2141 cell growth in a cell viability assay.
Assay [29] deals with EW-12. Description: SANGER: Inhibition of human EW-12 cell growth in a cell viability assay. The class given is functional, cell-based.
Assay [30] deals with MDA-MB-134-VI. Description: cells. The class given is functional, cell-based. The note with it: Homo sapiens.
Description: SANGER: Inhibition of human MDA-MB-134-VI cell growth in a cell viability assay.
For assay [31], the system named is P31-FUJ. The assay can be described thus: cells. The class given is functional, cell-based. The following applies: Homo sapiens.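 Further: growth inhibition of P31-FUJ cells, read out with a viability assay.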
Description: SANGER: Inhibition of human P31-FUJ cell growth in a cell viability assay.
Assay [32] relates to SR. Description: cells. The class given is functional, cell-based. The following applies: Homo sapiens.
Description: SANGER: Inhibition of human SR cell growth in a cell viability assay.
Assay [33] concerns L-540. The assay can be described thus: cells. The class given is functional, cell-based. The note with it: Homo sapiens.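 Further: growth inhibition of the human L-540 cell line, read out with a viability assay.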
Description: SANGER: Inhibition of human L-540 cell growth in a cell viability assay.
Assay [34] deals with NB1. Description: cells. The class given is functional, cell-based. The following applies: Homo sapiens.
Description: SANGER: Inhibition of human NB1 cell growth in a cell viability assay.
The test system of assay [35] is NCI-H2196. The assay can be described thus: cells. The class given is functional, cell-based. The following applies: Homo sapiens.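 Further: cell viability assay used as the readout of growth inhibition in NCI-H2196 cells.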
Description: SANGER: Inhibition of human NCI-H2196 cell growth in a cell viability assay.
Assay [36] relates to HCC1599. Description: cells. The class given is functional, cell-based. The following applies: Homo sapiens.
Description: SANGER: Inhibition of human HCC1599 cell growth in a cell viability assay.
In assay [37] the test system is K052. Description: cells. The class given is functional, cell-based. The following applies: Homo sapiens.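 Further: Read-out from a cell viability assay, IC50 reflecting suppression of K052 cell growth.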
Description: SANGER: Inhibition of human K052 cell growth in a cell viability assay.
Assay [38] relates to KARPAS-422. Description: cells. The class given is functional, cell-based. The note with it: Homo sapiens.
Description: SANGER: Inhibition of human KARPAS-422 cell growth in a cell viability assay.
For assay [39], the system named is LP-1. Description: cells. The class given is functional, cell-based. The following applies: Homo sapiens.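 Further: growth inhibition of human LP-1 cells, with the read-out taken from a cell viability assay.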
Description: SANGER: Inhibition of human LP-1 cell growth in a cell viability assay.

For `CN(C)C/C=C/C(=O)Nc1cc2c(Nc3ccc(F)c(Cl)c3)ncnc2cc1O[C@H]1CCOC1` [AFATINIB], the IC50 in assay [1], in assay [2], in [3], in [4], in assay [5] and in assay [6] was over 500 nM in each case. Also, the IC50 (in general, the point on the concentration scale where inhibition reaches its midpoint) in [7] is over 500 nM; in [8] it was over 500 nM; in [9], 95.5 nM; in assay [10], over 500 nM.
For `O=C(NOCC1CC1)c1ccc(F)c(F)c1Nc1ccc(I)cc1Cl` [CI-1040], the IC50 was over 10000 nM in assay [1]; over 10000 nM in assay [2]; 2510 nM in [3]; over 10000 nM in assay [4]; 8030 nM in assay [5]; over 10000 nM in assay [6]. In addition, the IC50 in [8] was 6540 nM; in [9], over 10000 nM; in assay [10] it was 5570 nM.
Consider `Nc1ccn([C@@H]2O[C@H](CO)[C@@H](O)[C@@H]2O)c(=O)n1` [CYTARABINE], for which the 50% inhibitory concentration (IC50) is over 2000 nM in [1]; over 2000 nM in assay [2]; over 2000 nM in assay [3]; 531 nM in [4]; over 2000 nM in [5]; 389 nM in assay [6]. In addition, the IC50 in assay [7] was 881 nM; in assay [8], 269 nM; in [9] it was over 2000 nM; in [10], 335 nM.
With `CC(=O)O[C@@]12CO[C@@H]1C[C@H](O)[C@@]1(C)C(=O)[C@H](O)C3=C(C)[C@@H](OC(=O)[C@H](O)[C@@H](NC(=O)OC(C)(C)C)c4ccccc4)C[C@@](O)([C@@H](OC(=O)c4ccccc4)[C@H]21)C3(C)C` [DOCETAXEL], the IC50 is over 10 nM in [1]; over 10 nM in assay [2]; 1.12 nM in assay [3]; 4.6 nM in [5]; 1.92 nM in [6]; 8.57 nM in [7]. Moreover, the IC50 is 0.182 nM in [8], over 10 nM in [9] and 1.1 nM in [10].
Regarding `CN(Cc1cnc2nc(N)nc(N)c2n1)c1ccc(C(=O)N[C@@H](CCC(=O)O)C(=O)O)cc1` [METHOTREXATE], the IC50 in assay [1], in assay [2], in assay [3], in [6], in assay [7] and in [8] was over 200 nM each time. Besides, the results for the IC50 in assay [9] and in [10] were over 200 nM and 29.6 nM, respectively.
For the compound `O=C(c1cc(Cc2n[nH]c(=O)c3ccccc23)ccc1F)N1CCN(C(=O)C2CC2)CC1` [OLAPARIB], the IC50 in assay [1], in assay [2], in assay [3], in assay [5], in assay [6] and in assay [7] was over 5000 nM in each case. The IC50 is 2450 nM in assay [8], over 5000 nM in assay [9] and over 5000 nM in assay [10].
In the case of `CN1CCN(CCOc2cc(OC3CCOCC3)c3c(Nc4c(Cl)ccc5c4OCO5)ncnc3c2)CC1` [SARACATINIB], the IC50 in [11], in assay [12], in [13], in [14], in assay [15] and in assay [16] was over 2000 nM throughout. Moreover, the IC50 in assay [17], in assay [18], in assay [19], in assay [20], in assay [21] and in [22] was over 2000 nM throughout. For the same compound, the IC50 in assay [23], in assay [24], in [25], in [26], in assay [27] and in [28] was over 2000 nM each time. The IC50 in assay [29], in assay [30], in assay [31], in assay [32], in assay [33] and in assay [34] was over 2000 nM in each case. For the same compound, the IC50 in [35], in assay [36], in [37], in assay [38] and in [39] was over 2000 nM throughout.
For `Cn1cc(C2=C(c3ccc(Cl)cc3Cl)C(=O)NC2=O)c2ccccc21` [SB-216763], the IC50 in assay [1] was over 10000 nM; in assay [2], over 10000 nM; in [3], over 10000 nM; in assay [4], 5290 nM; in assay [6] it was over 10000 nM; in assay [8], over 10000 nM. Also, the IC50 in assay [9] and in [10] was over 10000 nM each time.
Regarding `CO[C@H]1C[C@@H]2CC[C@@H](C)[C@@](O)(O2)C(=O)C(=O)N2CCCC[C@H]2C(=O)O[C@H]([C@H](C)C[C@@H]2CC[C@@H](O)[C@H](OC)C2)CC(=O)[C@H](C)/C=C(\C)[C@@H](O)[C@@H](OC)C(=O)[C@H](C)C[C@H](C)/C=C/C=C/C=C/1C` [SIROLIMUS], the IC50 in assay [11] was over 100 nM; in assay [12], 21.8 nM; in assay [13] it was over 100 nM; in assay [14], 31.3 nM; in assay [15], over 100 nM; in [16], over 100 nM. The IC50 in [17] was 44.8 nM; in assay [18], 0.434 nM; in assay [19], over 100 nM; in [20] it was over 100 nM; in [21], over 100 nM; in [22], over 100 nM. The IC50 is over 100 nM in [23]; 43.7 nM in assay [24]; over 100 nM in assay [25]; over 100 nM in [26]; under 0.391 nM in assay [27]; over 100 nM in assay [28]. Also, the half-maximal inhibitory concentration (IC50) in assay [29] was over 100 nM; in assay [30], 44 nM; in [31] it was over 100 nM; in [32], 11.4 nM; in [33], 10.4 nM; in assay [34], over 100 nM. In addition, the IC50 in assay [35], in [36], in assay [37], in assay [38] and in assay [39] was over 100 nM in each case.
Consider `CCC(=O)N1CCN(c2ccc(-n3c(=O)ccc4cnc5ccc(-c6cnc7ccccc7c6)cc5c43)cc2C(F)(F)F)CC1` [TORIN1], for which the IC50 in [11] was 697 nM; in assay [12], 77.9 nM; in assay [13], over 1200 nM; in assay [14], over 1200 nM; in assay [15], 554 nM; in assay [16] it was 649 nM. Besides, the IC50 in assay [17] is 1190 nM; in assay [18], 42.3 nM; in assay [19], 189 nM; in [20], over 1200 nM; in assay [21], 626 nM; in [22], over 1200 nM. In addition, the IC50 was over 1200 nM in assay [23]; 6.96 nM in assay [24]; over 1200 nM in assay [25]; 117 nM in assay [26]; 7.07 nM in [27]; 1190 nM in assay [28]. Besides, the IC50 was over 1200 nM in [29]; 143 nM in [30]; over 1200 nM in assay [31]; 63.7 nM in assay [32]; 301 nM in assay [33]; 279 nM in assay [34]. Also, the IC50 in [35] was found to be 330 nM; in [36], 48.8 nM; in assay [37] it was 119 nM; in [38], 124 nM; in assay [39], 89.4 nM.
